Molecules are shown by their SMILES.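 Cultured in 96-well plates, cells were exposed to test compound for 48 hours across five concentrations. GI50 marks 50% less growth. TGI: concentration producing complete growth inhibition.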 Calls of active or inactive are those of the source. Rule as the data show it: active = GI50 below about 0.43 µM; inactive = the rest.

The test system of the assay is MDA-MB-468 breast. Briefly: NCI anticancer screen, dose series, 48 h.
Turning to `COc1ccc(N2CCN(CC(=O)N3CCN(c4nnc(-c5ccc(Cl)cc5)c(-c5ccc(Cl)cc5)n4)CC3)CC2)cc1`, the GI50 was 11.5 µM and the TGI was found to be 45.5 µM.

As for `O=C(/C=C\c1ccc(Cl)c(Cl)c1)c1ccccc1`, the GI50 is 14.3 µM and the TGI worked out at 36.9 µM.

As to `CC1SC(c2cccc(Oc3ccccc3)c2)N(CCc2cccs2)C1=O` (stereo unspecified), the GI50 is 0.745 µM and the TGI is 2.91 µM.

As to `CNCc1ccc(C)c(NC(=O)c2ccc(Nc3nc(-c4ccccc4)c4ccccc4n3)cc2)c1`, the GI50 is 1.61 µM and the TGI came to 3.13 µM.

Turning to `CCC(CC)N1C(=O)/C(=c2\sc3n(c2=O)C2C(NN=3)N(CC)C(=O)N2CC)c2ccccc21` (stereo unspecified), the GI50 was 0.489 µM and the TGI was 27 µM.

As for `CCS(=O)(=O)Nc1ccc(Oc2ccc(F)cc2F)c(-c2cn(C)c(=O)c3[nH]ccc23)c1`, the GI50 was 0.0512 µM and the TGI worked out at 5.01 µM.

On to `Oc1c(Br)cc(Br)c2cccnc12`, for which the GI50 is 2.43 µM and the TGI stood at 7.53 µM.

Regarding `O=C1/C(=C/c2ccc([N+](=O)[O-])s2)Oc2ccc(Cl)cc21`, the GI50 was 0.44 µM and the TGI worked out at 1.56 µM.

In the case of `COc1ccc(C2CC(c3ccc(OC)c(OC)c3)=NN2C(=O)c2cc(OC)c(OC)c(OC)c2)cc1` (stereo unspecified), the GI50 was 0.575 µM and the TGI turned out to be 5.21 µM.

As to `Cc1cccc(NC(=O)c2sc3nc4c(cc3c2N)CCC4)c1C`, the GI50 was 0.196 µM and the TGI is 0.685 µM.

As to `O=C(/C=C/CN1CCCCC1)Nc1cc2c(Nc3ccc(F)c(Cl)c3F)ncnc2cc1OCCOC(F)F`, the GI50 is below 0.01 µM and the TGI is 0.0118 µM.

For `Cn1cc(C2=C(c3cn(CCCSC(=N)N)c4ccccc34)C(=O)NC2=O)c2ccccc21`, the GI50 is 0.569 µM and the TGI was 1.9 µM.

As to `N#CC1=C(N)Oc2c(ccc3ccccc23)C1c1ccccc1Cl` (stereo unspecified), the GI50 was 0.466 µM and the TGI turned out to be 20.7 µM.

As to `COC(=O)[C@@H](C)C[C@H](Cc1ccccc1)NC(=O)c1cccc([C@@H](C[C@H](C(C)C)N(C)C(=O)[C@@H](NC(=O)[C@H]2CCCCN2C)C(C)C)OC(C)=O)n1`, the GI50 was below 0.00167 µM and the TGI stood at 0.143 µM.

`CCN(CC)CCCC(C)NC(=S)N/N=C(\C)c1ccccn1` (stereo unspecified): the GI50 was 1.89 µM and the TGI came out at 5.65 µM.

In the case of `Cn1cnc2nc(Cl)nc(Cl)c21`, the GI50 was 3.68 µM and the TGI is 18.7 µM.

For `Oc1ccc(-c2nc(-c3ccc4oc5ccc(-c6[nH]c(-c7ccc(O)cc7)nc6-c6ccccc6)cc5c4c3)c(-c3ccccc3)[nH]2)cc1`, the GI50 was 6.65 µM and the TGI is 88.5 µM.

In the case of `CCCCCCn1c(=N)n(CC(O)COc2cccc(C)c2)c2ccccc21` (stereo unspecified), the GI50 was 1.71 µM and the TGI came to 3.54 µM.

For `COc1ccc(/C=C2\CN(Cc3cn(CCCNc4ccnc5cc(Cl)ccc45)nn3)C/C(=C\c3ccc(OC)cc3)C2=O)cc1`, the GI50 is 11.9 µM and the TGI amounted to 26.2 µM.

On to `COc1ccc(/C(C)=C(\c2ccc(Cl)cc2)c2ccc(OCCN3CCCCC3)cc2)cc1F`, for which the GI50 is 2.49 µM and the TGI is 5.62 µM.

Take `C=CC(=O)N1CC[C@@H](Oc2nc(Nc3ccc(N4CCC(N5CCN(C)CC5)CC4)cc3)c(C(N)=O)nc2CC)C1`: the GI50 is above 100 µM and the TGI was above 100 µM.

Consider `CC(CCC/C=C/CCCN(C)C(=N)N)CC(C)C1OC(=O)C(C)C(O)/C=C/C(C)C(O)C(C)C(O)C(C)C(O)CCCC(O)CC2(O)OC(CC(OC(=O)CC(=O)O)CC(O)CC(O)C(C)C(O)/C=C/C=C/C1C)CC(O)C2O` (stereo unspecified), for which the GI50 was 1.77 µM, the TGI turned out to be 3.29 µM and the outcome was inactive.

As for `Cn1c([N+](=O)[O-])cnc1/C=C1\Oc2ccc(Cl)cc2C1=O`, the GI50 is 1.92 µM and the TGI was 4.79 µM.

As for `CCN(CC)CCC(CNc1c2ccc(Cl)cc2nc2ccc(OC)cc12)c1ccccc1` (stereo unspecified), the GI50 was 1.57 µM and the TGI turned out to be 3.01 µM.

Regarding `C=C1C(=O)O[C@H]2[C@H]1CC/C(Cn1cc(CNC(=O)c3cc4ccccc4[nH]3)nn1)=C\CC[C@@]1(C)O[C@@H]21`, the GI50 was 1.45 µM and the TGI was determined as 3.66 µM.

Regarding `Cc1cc(F)cc(NS(=O)(=O)c2ccc(-c3cnc(C4CC4)o3)cc2)c1`, the GI50 was 0.079 µM and the TGI was 2.42 µM.

In the case of `COc1c(C)cnc(Cn2cnc3c(Cl)nc(N)nc32)c1C`, the GI50 was 0.169 µM and the TGI was determined as 1.53 µM.

Consider `CN1CCN(Cc2ccc(NC(=O)c3cncc(C#Cc4c(N)ncc5ccc(F)cc45)c3)cc2C(F)(F)F)CC1`, for which the GI50 is 4.19 µM and the TGI was found to be 12.3 µM.

In the case of `COc1ccc(C2CC(c3cccc(Nc4ccnc5cc(Cl)ccc45)c3)=NN2c2ccc(Cl)cc2)cc1` (stereo unspecified), the GI50 was 4.45 µM and the TGI was determined as 40.3 µM.

Take `CCCCc1ccc(C(N)=O)nc1`: the GI50 is above 100 µM and the TGI was above 100 µM.

As to `CCOC(=O)C(Cc1ccc(N(CCCl)CCCl)cc1)NC(=O)C(CC(C)C)NC(C)=O` (stereo unspecified), the GI50 was 0.426 µM and the TGI stood at 2.18 µM.

With `Cc1nn(-c2ccccc2)c2ncc3c(c12)C(=O)N(Cc1ccccc1)C3=O`, the GI50 is 9.21 µM and the TGI is above 100 µM.

Turning to `Cc1cc(N2CCOCC2)nc(N(CCNc2ccnc3cc(Cl)ccc23)Cc2cccs2)n1`, the GI50 is 2.11 µM and the TGI was 5.08 µM.

As to `Cc1nc2cc(NC(=O)CN3CCN(CCN4C(=O)c5cccc6cccc(c56)C4=O)CC3)ccc2s1`, the GI50 is 3.63 µM and the TGI amounted to 16.6 µM.

As for `COc1cc(C2C3=C(COC3=O)N(CCO)c3cc4c(cc32)CCC4)cc(OC)c1OC` (stereo unspecified), the GI50 was 0.0617 µM and the TGI turned out to be 0.151 µM.

`C#Cc1cccc(NC(=O)Nc2cccc(NC(=O)CCl)c2)c1`: the GI50 was 19.4 µM and the TGI amounted to 78.7 µM.

For `CC(=O)OC1C(OC/C2=C/C3[C@@H](C(C)C)CC=C(C)[C@@H]3CC(OC(=O)/C=C/c3cn(C)cn3)[C@]3(C)C=C[C@@]2(O)O3)OCC(O)C1O` (stereo partly specified), the GI50 is 0.0108 µM and the TGI came to 0.0988 µM.

Consider `COc1cc2c(cc1Nc1nc(Nc3ccsc3C(N)=O)c3cc[nH]c3n1)N(C(=O)CN(C)C)CCC2`, for which the GI50 is 0.0827 µM and the TGI is 0.947 µM.

With `CN(C)CCCn1c2c(c3ccncc3c1=O)C(=O)c1ccccc1-2`, the GI50 was 0.461 µM and the TGI is 3.02 µM.

Regarding `CCOC(=O)c1ccccc1NC(c1ccccc1)c1ccc2cccnc2c1O` (stereo unspecified), the GI50 was 2.45 µM and the TGI was 6.86 µM.

These data come from PubChem BioAssay (NCI).
